Columns and labels:
[1] = target: T1, Olfr556 (Mus musculus, UniProt B2RRG2); test: OR transcript level by RT-qPCR after in vivo odorant exposure; parameters: from tissue; host or cells: main olfactory epithelium of exposed mice; settings: olfactory stimulation during 48 hours, RT-qPCR
T1 sequence (B2RRG2 1-324): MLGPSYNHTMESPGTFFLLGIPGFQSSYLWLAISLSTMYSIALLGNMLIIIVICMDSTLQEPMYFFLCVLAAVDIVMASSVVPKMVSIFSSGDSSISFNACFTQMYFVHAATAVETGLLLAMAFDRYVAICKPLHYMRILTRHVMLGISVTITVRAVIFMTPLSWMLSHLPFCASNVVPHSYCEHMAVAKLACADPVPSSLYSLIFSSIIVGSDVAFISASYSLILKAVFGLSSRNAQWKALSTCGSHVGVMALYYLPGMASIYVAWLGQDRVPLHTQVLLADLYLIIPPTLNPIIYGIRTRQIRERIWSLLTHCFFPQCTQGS
Procedure: (§1) In vivo exposure to odorant: Starting 48 h before experiments, mice were habituated to pure DMSO on a cotton ball. 200 μl were pipetted directly onto the cotton and placed in the cage, replacing any cotton that was already in the cage for nest-making purposes.
On the day of the experiment, mice receiving odorants were transferred to a different room, where they were exposed to a cotton ball on which 200 μl of odorant diluted in pure DMSO were deposited. […] […] If a number of different odorants were tested in the same experiment, a different overpressurized room would always be used for each odorant to avoid odor cross-contamination.
After odorant exposure, mice were killed by cervical dislocation and immediately decapitated. The main olfactory epithelia (MOE), were harvested in their entirety and transferred to a tube containing 600 μl of lysis buffer and β-mercaptoethanol (RNAeasy kit, Qiagen, following the manufacturer protocol) and a 0.5 cm diameter steel ball, and then put on ice. Samples were then homogenized using a FastPrep®-24 instrument (MP Biomedicals) at 6 m/s for 30 s and left on ice. RNA extraction was performed on all samples in parallel using the Qiagen RNeasy Mini® kit following the manufacturer's instructions. Two DNase treatments were performed on all samples: first using the Qiagen RNase-Free DNase Set® and then using the Life Technologies Ambion DNase I® kit. RNA samples were then aliquoted and stored at −80° C.
RNA concentrations were determined using an Amersham Ultrospec® 3100 Pro spectrophotometer, and RNA quality was evaluated with an Agilent Technologies 2100 Bioanalyzer®. Each reverse transcription was performed with 0.5 μg RNA using the Takara Primescript® kit, in a final volume of 10 μl. Primers for reverse transcription were equal mixtures of poly-T nucleotides and random hexamers. Negative controls (omitting the reverse transcriptase enzyme) were performed for each sample. 1/14th of the cDNA preparation was used for each triplicated qPCR reaction.
qPCR Ct values were analyzed using an in-house developed Microsoft Excel® macro file. Triplicate values were compared and outliers (values with a difference higher than 0.5 Ct to their nearest neighbor) were discarded. The number of conditions with an outlying value was always less than 10% of the total number of conditions. Ct values were converted to quantities relative to the maximum for each given gene. Selected reference genes were then analyzed for variance using the geNorm algorithm. All values were normalized with the olfactory tissue-specific genes Omp and Adcy3. β-Actin was used as a non-tissue-specific reference gene to control for differences in dissection between samples. […]

[2] = target: T2, TAAR3 (Mus musculus, UniProt Q5QD16); settings: Zhang et al, 2013; cited from earlier work
T2 sequence (Q5QD16 whole entry): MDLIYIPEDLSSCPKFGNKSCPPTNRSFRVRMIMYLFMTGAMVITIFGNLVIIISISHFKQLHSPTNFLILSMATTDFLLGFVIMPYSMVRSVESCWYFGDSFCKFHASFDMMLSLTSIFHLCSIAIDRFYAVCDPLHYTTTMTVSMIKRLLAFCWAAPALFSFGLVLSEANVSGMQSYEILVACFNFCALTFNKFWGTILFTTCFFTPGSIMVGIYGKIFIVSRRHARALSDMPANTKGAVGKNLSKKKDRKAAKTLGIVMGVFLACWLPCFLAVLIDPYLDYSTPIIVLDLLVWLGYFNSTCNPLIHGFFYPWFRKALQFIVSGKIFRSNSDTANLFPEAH

[3] = target: T3, TAAR4 (Mus musculus, UniProt Q5QD15); settings: Zhang et al, 2013; cited from earlier work
T3 construct: from tissue; host or cells: main olfactory epithelium of living mice
T3 sequence (Q5QD15 whole entry): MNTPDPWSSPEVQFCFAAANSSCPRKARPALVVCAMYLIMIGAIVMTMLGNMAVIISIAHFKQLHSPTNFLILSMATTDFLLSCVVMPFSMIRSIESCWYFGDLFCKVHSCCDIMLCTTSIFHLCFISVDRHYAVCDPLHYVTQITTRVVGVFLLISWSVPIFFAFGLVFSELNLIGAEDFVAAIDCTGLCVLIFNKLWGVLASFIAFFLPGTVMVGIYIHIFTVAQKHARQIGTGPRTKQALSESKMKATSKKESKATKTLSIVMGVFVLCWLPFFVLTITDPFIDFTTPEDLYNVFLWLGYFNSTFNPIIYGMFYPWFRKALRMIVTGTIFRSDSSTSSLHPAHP

[4] = target: T4, TAAR6 (Mus musculus, UniProt Q5QD13); test: TAAR transcript level by RT-qPCR after in vivo exposure; settings: olfactory stimulation during 48 hours
T4 construct: from tissue; host or cells: main olfactory epithelium of living mice
T4 sequence (Q5QD13 whole entry): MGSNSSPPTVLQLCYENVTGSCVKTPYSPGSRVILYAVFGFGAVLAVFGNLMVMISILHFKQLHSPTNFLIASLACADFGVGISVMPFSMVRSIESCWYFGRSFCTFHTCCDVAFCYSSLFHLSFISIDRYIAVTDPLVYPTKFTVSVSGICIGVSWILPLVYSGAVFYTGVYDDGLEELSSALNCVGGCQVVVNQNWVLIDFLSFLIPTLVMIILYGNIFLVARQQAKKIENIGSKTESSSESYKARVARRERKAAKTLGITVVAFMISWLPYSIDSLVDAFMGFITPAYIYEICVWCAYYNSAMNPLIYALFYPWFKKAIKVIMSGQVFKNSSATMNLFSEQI
Procedure: as §1
(§2) On the day of the experiment, mice receiving odorants were transferred to a different room, where they were exposed to a cotton ball on which 200 μl of odorant diluted in pure DMSO were deposited. Exposures started in the morning between 8 and 10 am (that is two hours after lights were on) and mice were killed and dissected between 1 and 3 pm. […] If a number of different odorants were tested in the same experiment, a different overpressurized room would always be used for each odorant to avoid odor cross-contamination.
(§3) After odorant exposure, mice were killed by cervical dislocation and immediately decapitated. The main olfactory epithelia (MOE), were harvested in their entirety and transferred to a tube containing 600 μl of lysis buffer and β-mercaptoethanol (RNAeasy kit, Qiagen, following the manufacturer protocol) and a 0.5 cm diameter steel ball, and then put on ice. Samples were then homogenized using a FastPrep®-24 instrument (MP Biomedicals) at 6 m/s for 30 s and left on ice. […]
(§4) RNA concentrations were determined using an Amersham Ultrospec® 3100 Pro spectrophotometer, and RNA quality was evaluated with an Agilent Technologies 2100 Bioanalyzer®. […]
(§5) qPCR Ct values were analyzed using an in-house developed Microsoft Excel® macro file. […] Ct values were converted to quantities relative to the maximum for each given gene. Selected reference genes were then analyzed for variance using the geNorm algorithm. […]
(§6) Transcript levels of olfactory receptor gene were evaluated following olfactory stimulation during 48 hours by beta-phenylethylamine. Olfactory receptor gene transcript levels were evaluated by RT-qPCR for each receptor gene, and the ratios between the values obtained in exposed versus control mice are shown in FIG. 6. […]

[5] = target: T2, TAAR3; test: as above; settings: olfactory stimulation during 48 hours
Procedure: as §1, §2, §3, §4, §5, §6

[6] = target: T3, TAAR4; test: as above; settings: olfactory stimulation during 48 hours
Procedure: as §1, §2, §3, §4, §5, §6

[7] = tested on: Olfr171-expressing neurons; test: pS6 immunolabeling with OR in situ hybridization after odorant exposure; parameters: species or system mouse; settings: 5% odorant, 60 minutes, in vivo
Procedure: (§7) In order to independently validate the identity of an acetophenone receptor obtained with the RNAseq approach, the potential colocalization following acetophenone exposure of a neuronal activity marker (the phosphorylated ribosomal protein S6 (pS6) (Knight et al., 2012, Cell, 151, 1126-1137) and specific olfactory receptors were evaluated. To this aim, in-situ hybridizations were performed on sections of olfactory tissue with probes targeting receptor mRNAs followed by immunolabeling of pS6. The probes used were directed against the transcripts of most of the ORs determined as responsive including Olfr983 transcripts (encoding a known acetophenone receptor), Olfr171 transcripts (encoding a known ethyl isobutyrate receptor), and Olfr145 transcripts, encoding a newly identified receptor by RNAseq. Before analysis, mice were exposed to either 5% acetophenone, 5% ethyl isobutyrate, or a negative control condition for 60 minutes. […] 66% (Olfr983) and 70% (Olfr145) of the neurons were positive for pS6 after acetophenone exposure, while only 11% of the neurons expressing Olfr171 were positive for pS6 after exposure to this compound.

[8] = target: T5, Olfr167 (Mus musculus, UniProt Q8VGJ5); test: OR transcripts by qPCR after ex vivo exposure of olfactory epithelia; format: cell-based; settings: 50 μM, 2 hours, olfactory epithelia in vitro in ACSF medium
T5 construct: from tissue; host or cells: main olfactory epithelium of C57BL/6 mice (in vivo exposure) or explanted mouse olfactory epithelia (ex vivo)
T5 sequence (Q8VGJ5 1-312): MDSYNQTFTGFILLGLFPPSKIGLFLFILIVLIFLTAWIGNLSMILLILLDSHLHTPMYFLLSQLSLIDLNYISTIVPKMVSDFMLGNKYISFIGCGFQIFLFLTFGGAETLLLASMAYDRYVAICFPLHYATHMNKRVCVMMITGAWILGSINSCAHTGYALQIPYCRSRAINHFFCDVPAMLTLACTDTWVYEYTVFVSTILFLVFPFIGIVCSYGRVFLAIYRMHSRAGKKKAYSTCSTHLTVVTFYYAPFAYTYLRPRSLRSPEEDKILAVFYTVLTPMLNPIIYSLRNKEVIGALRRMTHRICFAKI
Procedure: (§8) In vitro exposure to odorant: The olfactory sensory mucosa of a live or recently dead vertebrate is collected and maintained alive in vitro. Sensory neurons are either left untouched or are dissociated. The exposure to the odorants is then performed in vitro, in a tube, in the liquid phase. The explants/neurons are kept alive in a physiological medium (such as 145 mM NaCl, 5 mM KCl, 1 mM CaCl2, 1 mM MgCl2, 10 mM HEPES, 10 mM glucose). […] The potential modulations of mRNA levels between the two populations are then evaluated, by qPCR (FIG. 2), RNAseq or other techniques, to identify the receptors that have been activated.
(§9) Mouse olfactory epithelia were collected and kept in vitro in ACSF medium where they were exposed for 2 hours to 50 μM ethyl isobutyrate. The number of transcripts for Olfr genes was then evaluated by qPCR, and those of Olfr167 and Olfr171 were both repressed after agonist exposure. Ethyl isobutyrate was previously shown to be an agonist for Olfr167 and Olfr171.

[9] = tested on: Olfr171; test: OR transcript level by RT-qPCR after in vivo odorant exposure; parameters: species or system mouse; settings: 5% odorant for 5 hours, sensory neuroepithelium, n=7 mice
Procedure: as §1
(§10) On the day of the experiment, mice receiving odorants were transferred to a different room, where they were exposed to a cotton ball on which 200 μl of odorant diluted in pure DMSO were deposited. Exposures started in the morning between 8 and 10 am (that is two hours after lights were on) and mice were killed and dissected between 1 and 3 pm. […]
as §4, §5
(§11) Adult C57BL/6 mice were exposed to 5% ethyl isobutyrate for 5 hours, and the level of transcripts of odorant receptors' genes were measured by RT-qPCR on extracts of olfactory epithelia from these mice, as described in the materials and methods section.

[10] = tested on: control odorant receptor genes (8 genes); test: as above; parameters: species or system mouse; settings: 5% odorant for 5 hours; margin of ±20% relative to control mice not significant
Procedure: as §1, §10, §4, §5, §11

[11] = tested on: Olfr171; settings: cited from earlier work
[12] = target: T5, Olfr167; test: OR transcript level by RT-qPCR after in vivo odorant exposure; settings: 5% odorant for 5 hours, sensory neuroepithelium, n=7 mice
Procedure: as §1, §10, §4, §5, §11

[13] = tested on: Olfr171; test: OR transcripts by qPCR after ex vivo exposure of olfactory epithelia; format: cell-based, Mouse; settings: 50 μM, 2 hours, olfactory epithelia in vitro in ACSF medium
Procedure: as §8, §9

[14] = target: T5, Olfr167; settings: cited from earlier work
[15] = tested on: neurons expressing Olfr145; test: pS6 immunolabeling with OR in situ hybridization after odorant exposure; format: in vivo, mouse; settings: 5% odorant, 60 minutes, in vivo
Procedure: as §7

[16] = tested on: neurons expressing Olfr983; test: as above; format: in vivo, mouse; settings: 5% odorant, 60 minutes, in vivo
Procedure: as §7

[17] = target: T6, Olfr2 (Mus musculus, UniProt Q9QWU6); test: OR transcript level by RT-qPCR after in vivo odorant exposure; settings: 5% odorant, 5 hours
T6 construct: host or cells: HEK cells
T6 sequence (Q9QWU6 1-327): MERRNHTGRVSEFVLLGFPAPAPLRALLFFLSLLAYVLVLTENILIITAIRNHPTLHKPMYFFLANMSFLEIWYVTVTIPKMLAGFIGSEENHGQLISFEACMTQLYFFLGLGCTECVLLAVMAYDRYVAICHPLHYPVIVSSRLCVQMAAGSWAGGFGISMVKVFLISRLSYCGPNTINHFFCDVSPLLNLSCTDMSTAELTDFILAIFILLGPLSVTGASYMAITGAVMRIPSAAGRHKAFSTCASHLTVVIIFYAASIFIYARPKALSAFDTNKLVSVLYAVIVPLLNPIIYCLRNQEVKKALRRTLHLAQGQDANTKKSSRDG
Procedure: as §1, §2
(§12) After odorant exposure, mice were killed by cervical dislocation and immediately decapitated. […]
as §4, §5

[18] = target: T6, Olfr2; settings: HEK cells; previously shown; read-out: EC50 as agonist of Olfr2; cited from earlier work
[19] = target: T7, Olfr16 (Mus musculus, UniProt Q62007); test: OR transcript level by RT-qPCR after in vivo odorant exposure; parameters: from tissue; host or cells: main olfactory epithelium of exposed mice; settings: 5% odorant, 5 hours
T7 sequence (Q62007 whole entry): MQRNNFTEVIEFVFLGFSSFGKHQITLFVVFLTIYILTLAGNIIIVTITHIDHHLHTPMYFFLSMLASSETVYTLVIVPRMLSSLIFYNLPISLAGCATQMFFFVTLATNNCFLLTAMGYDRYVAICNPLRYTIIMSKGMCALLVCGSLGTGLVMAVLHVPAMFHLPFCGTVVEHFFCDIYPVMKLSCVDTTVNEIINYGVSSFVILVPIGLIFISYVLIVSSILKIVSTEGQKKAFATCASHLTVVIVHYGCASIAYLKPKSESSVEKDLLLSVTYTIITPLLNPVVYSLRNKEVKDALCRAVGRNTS
Procedure: as §1, §2, §12, §4, §5

[20] = target: T7, Olfr16; parameters: host or cells: dissociated neurons; settings: dissociated neurons; previously shown; read-out: EC50 as agonist of Olfr16; cited from earlier work
[21] = tested on: Olfr609; settings: HEK cells; previously shown; read-out: EC50 as agonist of Olfr609; cited from earlier work
[22] = tested on: Olfr609; test: OR transcript level by RT-qPCR after in vivo odorant exposure; parameters: species or system mouse; settings: 5% odorant, 5 hours
Procedure: as §1, §2, §12, §4, §5

## NCCc1ccccc1 [beta-phenylethylamine]
[1]
  Olfr556 transcript level (negative control): not affected
[2]
  TAAR3 response previously shown: respond
[3]
  TAAR4 response previously shown: respond
[4]
  TAAR6 transcript level (negative control): not affected
[5]
  number of transcripts encoding TAAR3: decrease
[6]
  number of transcripts encoding TAAR4: decrease

## CCOC(=O)C(C)C [ethyl isobutyrate]
[7]
  fraction of Olfr171-expressing neurons positive for pS6: 67%
[8]
  number of Olfr167 transcripts after agonist exposure: repressed
[9]
  mRNA concentration of Olfr171, decreased, relative to unexposed controls: 74%
[10]
  concentration of control odorant receptor gene transcripts: none of the control odorant receptor genes (8 genes) was significantly affected
[11]
  action on Olfr171 previously shown: agonist
[12]
  mRNA concentration of Olfr167, decreased, relative to unexposed controls: 47%
[13]
  number of Olfr171 transcripts after agonist exposure: repressed
[14]
  action on Olfr167 previously shown: agonist
[15]
  fraction of Olfr145-expressing neurons positive for pS6: 28%
[16]
  fraction of Olfr983-expressing neurons positive for pS6: 12%

## CCCCCCC=O [heptanal]
[17]
  Olfr2 mRNA level relative to unexposed controls: decrease
[18]
  EC50: < 50 µM

## CC(C)(O)CCCC1=CCC(C=O)CC1 (stereo not shown) [lyral]
[19]
  Olfr16 mRNA level relative to unexposed controls: decrease
[20]
  EC50: < 50 µM

## COc1cc(C(=O)O)ccc1O [vanillic acid]
[21]
  EC50: < 50 µM
[22]
  Olfr609 mRNA level relative to unexposed controls: decrease
